Target: T1, Novosphingobium aromaticivorans ketoreductase (NaKRED) mutant Y199A/N149L (parent SEQ ID NO. 2) (Novosphingobium aromaticivorans, UniProt A4XEP2, E216K/G141A/I221V/N149L/Y199A)
T1 construct: substrate 1a with NADH
T1 sequence (A4XEP2 1-259 E216K/G141A/I221V/N149L/Y199A): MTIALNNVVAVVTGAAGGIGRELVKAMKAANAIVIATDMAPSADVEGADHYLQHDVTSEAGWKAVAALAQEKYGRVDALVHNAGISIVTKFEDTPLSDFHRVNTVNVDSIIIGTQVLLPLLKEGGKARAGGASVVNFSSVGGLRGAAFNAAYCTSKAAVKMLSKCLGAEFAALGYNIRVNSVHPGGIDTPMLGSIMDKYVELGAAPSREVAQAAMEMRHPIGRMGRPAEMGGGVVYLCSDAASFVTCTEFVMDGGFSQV
Test: Enzyme activity assay of purified Y199A/N149L mutant (change in absorbance at 340 nm, NADH)
Type: biochemical
Conditions: role: substrate; 0.5 mM substrate 1a; 1 mM NADH; 0.5 μM purified enzyme; 100 mM PBS pH 7.2
Procedure: The collected wet cells were resuspended in a reaction buffer in a ratio of 1 g wet cells to 15 mL of reaction buffer. The cells were lysed by ultrasonication in an ice bath using cycles of turn-on for 1 s and turn-off for 2 s for a total duration of 45 min. The lysate was centrifuged at 12,000 rpm and 4 °C for 15 min, and the supernatant was filtered through a 0.22 μm membrane for subsequent purification. The purification was performed by Ni-NTA affinity chromatography using a 5 mL of pre-packed column. The entire purification system was first equilibrated with an equilibration buffer, and the sample was loaded at a flow rate of 1 mL/min. Unbound impurity proteins were further removed with the equilibration buffer, and gradient elution was performed by using an elution buffer (500 mM NaCl, and 500 mM imidazole). A target protein was eluted at approximately 150 mM imidazole. The target protein was collected, and concentrated and desalted by using an ultrafiltration tube (50 kDa cutoff) to a final volume of 1 mL. A protein solution was aliquoted and stored at −80 °C for further use.
Therefore, the activity of the mutant was evaluated by monitoring the change in absorbance at 340 nm during the reaction. […] The change in absorbance was monitored over 5 min. […] A sample was prepared by filtration through a 0.22 μm membrane, and the formation of product was detected by HPLC.

Q: Which TON does the source give for `CC(C)C(=O)CC[C@@H](C)[C@H]1CCC2C3C(CC[C@@]21C)[C@@]1(C)CC[C@@H](O)C[C@@H]1C[C@H]3O` (stereo partly shown) [1a] here?
A: 438 ± 2.9
